Measured values from patent US4659732A, “Lipoxygenase inhibiting 1-arylalkyl-, 1-arylthio-, and 1-aryloxypyrazole-4,5-diones” (Bayer Aktiengesellschaft, priority 1984, dated 1987).

Tests used:
myocardial infarct = experiment: Myocardial infarct after acute ligature of a coronary artery; format: in vivo; conditions: dog
Experimental: The actions of various pyrazoledione derivatives on the experimental myocardial infarct in the dog were investigated after acute ligature of a coronary artery. In pentobarbital-anaesthetised dogs, the proximal left anterior descending coronary artery (LAD) […] occluded for 6 hours. The artery was not reperfused. One hour prior to ligature, the test compounds in 1% tyclose suspension were administered intraduodenally as a bolus. The same procedure was adopted for the controls, except that no active compound was administered. The size of the infarct and the area of perfusion of the LAD were determined biochemically by means of a dual perfusion method using Evans Blue and triphenyltetrazolium chloride. […] This could be observed both with respect to the absolute infarct weight and the infarct size relative to the weight of the left ventricule. Initially, the blood pressure decreased as a result of the coronary ligature, and this led to a reflectory increase in the heart rate.

cyclooxygenase = conditions: known lipoxygenase inhibitors; cited from earlier work
5-lipoxygenase = molecular target: T1, 5-lipoxygenase (Homo sapiens, UniProt P09917); experiment: Inhibition of LTB4 synthesis in human PMN leucocytes (A 23 187 stimulated); format: cell-based; conditions: for inhibition at 0.5 µg/mL: 0.5 μg/ml; for inhibition at 1 µg/mL: 1 μg/ml; for inhibition at 5 µg/mL: 5 μg/ml; for inhibition at 0.1 µg/mL: 0.1 μg/ml
T1 construct: The human polymorphonuclear leucocytes metabolize the arachidonic acid to give 5-hydroxy-5,8,11,14-eicosatetraenoic acid (5-HETE) and leucotriene B4; endogenous in cells; host or cells: human PMN leucocytes from heparinized whole blood
T1 sequence (P09917 1-674): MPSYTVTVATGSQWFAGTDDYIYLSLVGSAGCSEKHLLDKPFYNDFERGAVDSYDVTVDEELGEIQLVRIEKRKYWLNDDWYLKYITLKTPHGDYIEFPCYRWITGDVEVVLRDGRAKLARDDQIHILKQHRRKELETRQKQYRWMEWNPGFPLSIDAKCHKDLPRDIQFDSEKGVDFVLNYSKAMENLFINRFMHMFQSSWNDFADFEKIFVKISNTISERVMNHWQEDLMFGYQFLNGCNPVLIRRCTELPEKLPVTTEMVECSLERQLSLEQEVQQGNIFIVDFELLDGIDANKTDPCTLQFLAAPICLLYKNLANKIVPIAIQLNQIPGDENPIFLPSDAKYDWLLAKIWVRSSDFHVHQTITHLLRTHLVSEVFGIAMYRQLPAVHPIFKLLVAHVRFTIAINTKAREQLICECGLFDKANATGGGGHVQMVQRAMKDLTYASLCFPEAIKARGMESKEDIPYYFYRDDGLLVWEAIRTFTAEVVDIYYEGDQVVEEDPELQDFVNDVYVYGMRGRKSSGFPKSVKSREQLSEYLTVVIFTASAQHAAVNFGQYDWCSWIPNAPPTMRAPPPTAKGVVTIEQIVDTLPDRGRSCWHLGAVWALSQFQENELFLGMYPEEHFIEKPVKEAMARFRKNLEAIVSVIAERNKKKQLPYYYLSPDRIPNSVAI
Experimental: The 5-lipoxygenase responsible for the biosynthesis of the leucotrienes B4, C4 and D4 is inhibited selectively at low concentrations. […] Inhibition of the liberation of 5-HETE and leucotriene B4 from the leucocytes constitutes a measure of the lipoxygenase-inhibiting effect of the compounds according to the invention (see Table 1). The test with the human leucocytes was carried out in accordance with Borgeat and Samuelsson (J. Biol. Chem. 254, 2643, 1979, and Proc. Natl. Acad. Sci. USA, 76, 2148, 1979). The human PMN leucocytes (>95%) used in the present example were obtained from heparinized whole blood by dextran sedimentation and subsequent density gradient separation (Ficoll-Paque) (see A. Boyum, Scand. J. Immunol., 5, Suppl. 5, 9, 1976). 2×10^7 cells/ml were suspended in Ca^2+ -containing Dulbecco phosphate buffer and stimulated in the presence and absence of lipoxygenase inhibitors, with the calcium ionophore A 23 187. After 15 minutes, the lipoxygenase products were extracted from the acidified incubation medium and separated by means of HPLC.

leucocyte stickiness = experiment: Stickiness of leucocytes in hamster cheek pouch; format: in vivo, Male Syrian golden hamsters; conditions: Effect after administration of 1 mg/kg i.a.
From the text: The reduction in the leucocyte stickiness is also responsible for the decrease in ischaemic areas since, after treatment with the compounds to be used according to the invention, the leucocytes pass through the microcirculatory region of these areas without reducing the supply to the corresponding tissue by totally or temporarily closing small vessels or capillaries.
The number of leucocytes which pass through a certain section of a vessel serves as a simple model for measuring the stickiness of leucocytes (Bray, M. A. et al., Prostaglandins, 22, 213, 1981). The less sticky these cells are, the greater is the number of leucocytes counted.
Male Syrian golden hamsters (80-100 g) were anaesthetized with nembutal (i.p.; 60 mg/kg). After fixing a PE 10 catheter in the A.femoralis, the animal is laid on a Duling dissection stage (MVR 5, 423, 1973) and the right cheek pouch is drawn out by inserting a Q-tip. It is carefully drawn into that part of the stage which is intended for this purpose, and is stretched out and fixed. From the beginning of the preparation procedure, the prepared cheek pouch is rinsed over with 5 ml/minute of superfusate. The temperature of the solution is 36° C. While protecting the vessels, the upper layer of tissue is cut longitudinally and folded to the side. Under about 200 times magnification, an area of about 1 cm^2 of connective tissue is carefully exposed. The animal, together with the dissection stage, is placed on the microscope stage. A thermocouple is inserted into the left cheek pouch. The body temperature of the animal is monitored in this manner and maintained within +0.3° C. with the aid of an IR lamp (240 watt).
Measurement of the leucocyte stickiness is carried out under a magnification of about 500 times. A small vein (30-40 μm .phi.) is selected in the exposed area. Over a certain section of this vessel, the number of leucocytes passing by per unit time (min.) is counted.

[1] = administered systemically (for example orally); cited from earlier work

Row | SMILES | haemodynamic effects (myocardial infarct; LAD ligature, intraduodenal) | inhibition at 0.5 µg/mL (5-lipoxygenase) | inhibition at 1 µg/mL (5-lipoxygenase) | inhibition at 5 µg/mL (5-lipoxygenase) | inhibition at 0.1 µg/mL (5-lipoxygenase) | infarct size (myocardial infarct; gradual LAD occlusion 6 hours, intraduodenal bolus one hour prior to ligature, absolute infarct weight and relative to left ventricle weight) | cyclooxygenase inhibition (cyclooxygenase) | Inhibition of leucocyte stickiness (leucocyte stickiness) | toxic side effects [1]
1 | C1=CSc2ccccc2N1 [4H-1,4-benzothiazine] | no haemodynamic effects | – | – | – | – | substantially reduced the infarct size | – | – | –
2 | O=C1CCN(c2ccccc2)N1 [phenidone] | – | – | – | – | – | – | act as cyclooxygenase inhibitors either simultaneously or only at very high concentrations | – | –
3 | CC1=NN(C(C)c2ccc(Cl)c(Cl)c2)C(=O)C1=O (stereo not drawn) [Example 5] | – | 12% | 29% | 84% | – | – | – | no action | –
4 | CCCCCC=CCC=CCC=CCC=CCCCC(=O)O [5,8,11,14-eicosatetraenoic acid] | – | – | – | – | – | – | act as cyclooxygenase inhibitors either simultaneously or only at very high concentrations | – | –
5 | COCC1=NN(CCOc2ccc3ccccc3c2)C(=O)C1=O [Example 4] | – | 47% | 60% | 100% | 15% | – | – | inhibition | –
6 | COCC1=NN(C(C)c2ccc(Cl)c(Cl)c2)C(=O)C1=O (stereo not drawn) [Example 3] | – | 20% | 37% | 100% | 6% | – | – | no effect | –
7 | CC1=NN(CCOc2ccc3ccccc3c2)C(=O)C1=O [Example 1, 3-Methyl-1-[2-(2-naphthyloxy)-ethyl]-2-pyrazole-4,5-dione] | – | 60% | 85% | 100% | 29% | – | – | inhibition | –
8 | CC(C)(C)C1=NN(CCOc2ccccc2)C(=O)C1=O [Example 2] | – | – | 12% | – | – | – | – | inhibition | –
9 | CC(Cc1ccc(O)c(O)c1)C(C)Cc1ccc(O)c(O)c1 (stereo not drawn) [nordihydroguaretic acid] | – | – | – | – | – | – | act as cyclooxygenase inhibitors either simultaneously or only at very high concentrations | – | –
10 | NC1=NN(c2cccc(C(F)(F)F)c2)CC1 [3-amino-1-(3-trifluoromethylphenyl)-2-pyrazoline] | – | – | – | – | – | – | act as cyclooxygenase inhibitors either simultaneously or only at very high concentrations | – | toxic side effects
11 | CC1=NN(CCOc2ccccc2)C(=O)C1=O [Example 6] | – | 60% | 88% | 100% | 38% | – | – | no effect | –

Second part, led by results:

Row | haemodynamic effects (myocardial infarct; LAD ligature, intraduodenal) | inhibition at 0.5 µg/mL (5-lipoxygenase) | inhibition at 1 µg/mL (5-lipoxygenase) | inhibition at 5 µg/mL (5-lipoxygenase) | inhibition at 0.1 µg/mL (5-lipoxygenase) | SMILES | infarct size (myocardial infarct; gradual LAD occlusion 6 hours, intraduodenal bolus one hour prior to ligature, absolute infarct weight and relative to left ventricle weight) | cyclooxygenase inhibition (cyclooxygenase) | Inhibition of leucocyte stickiness (leucocyte stickiness) | toxic side effects [1]
12 | – | – | 40% | 73% | – | CC1=NN(C(C)c2cccc(C(F)(F)F)c2)C(=O)C1=O (stereo not drawn) [Example 9] | – | – | no effect | –
13 | – | – | 29% | 32% | – | CC1=NN(C(C)C2CCCCC2)C(=O)C1=O (stereo not drawn) [Example 11] | – | – | inhibition | –
14 | – | 10% | 35% | 100% | – | O=C1C(=O)N(CCOc2ccc3ccccc3c2)N=C1CC1CCCCC1 [Example 8] | – | – | no action | –
15 | – | 12% | 56% | 100% | – | CCCC1=NN(CCOc2ccc3ccccc3c2)C(=O)C1=O [Example 10] | – | – | inhibition | –
16 | – | 10% | 21% | 100% | – | CC1=NN(C(C)c2ccc3c(c2)CCCC3)C(=O)C1=O (stereo not drawn) [Example 7] | – | – | inhibition | –
